Data published in the supplement of paper PMC10307832.

What was measured:
Test in all cases: relative viability (nuclei count vs DMSO), 5 days (fraction); higher = more cells survive
[1] = system: NCI-H2085
Procedure, shortened: (§1)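 After 5 days of treatment, lung cancer cells in 1536-well plates were fixed and stained in a single step (final 0.05% Triton X-100, 1% formaldehyde, 1 ug/ml Hoechst) and their nuclei counted on 4× images. Treatment had been applied by pin tool the day after seeding as one drug alone or as a fixed anchor-drug dose with five library-drug doses (not always all listed) in √10 steps. Relative viability is the nuclei count of treated wells divided by that of vehicle wells, and values are medians of duplicate plates.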

[2] = system: NCI-H1651
Procedure, shortened: as §1

[3] = system: HCC-366
Procedure, shortened: as §1

[4] = system: NCI-H1650
Procedure, shortened: as §1

[5] = system: COR-L23
Procedure, shortened: as §1

[6] = system: LU99A
Procedure, shortened: as §1

[7] = system: NCI-H322M
Procedure, shortened: as §1

[8] = system: HCC-78
Procedure, shortened: as §1

[9] = system: HARA
Procedure, shortened: as §1

[10] = system: NCI-H460
Procedure, shortened: as §1

[11] = system: NCI-H1793
Procedure, shortened: as §1

[12] = system: NCI-H2087
Procedure, shortened: as §1

[13] = system: 201T
Procedure, shortened: as §1

[14] = system: NCI-H1755
Procedure, shortened: as §1

[15] = system: NCI-H3122
Procedure, shortened: as §1

[16] = system: SK-LU-1
Procedure, shortened: as §1

[17] = system: NCI-H23
Procedure, shortened: as §1

[18] = system: H3255
Procedure, shortened: as §1

[19] = system: PC-3 [JPC-3]
Procedure, shortened: as §1

[20] = system: NCI-H596
Procedure, shortened: as §1

CCNC(=O)c1noc(-c2cc(C(C)C)c(O)cc2O)c1-c1ccc(CN2CCOCC2)cc1 [Luminespib] + CC1(C)CCC(c2ccc(Cl)cc2)=C(CN2CCN(c3ccc(C(=O)NS(=O)(=O)c4ccc(N[C@H](CCN5CCOCC5)CSc5ccccc5)c(S(=O)(=O)C(F)(F)F)c4)cc3)CC2)C1 [Navitoclax] (partner 0.5 µM) gave a relative viability ([1]; first compound 0.002 µM) of 1.15, a relative viability ([1]; first compound 0.006325 µM) of 1.13 and a relative viability ([1]; first compound 0.02 µM) of 1.14. For the same molecule, the relative viability ([1]; first compound 0.06325 µM) was 0.677, the relative viability ([1]; first compound 0.2 µM) was 0.503 and the relative viability ([2]; first compound 0.002 µM) was 0.967. For the same molecule, the relative viability ([2]; first compound 0.006325 µM) was 1.1, the relative viability ([2]; first compound 0.02 µM) was 1.08 and the relative viability ([2]; first compound 0.06325 µM) was 0.18. It also gave a relative viability ([2]; first compound 0.2 µM) of 0.144, a relative viability ([3]; first compound 0.002 µM) of 1.11 and a relative viability ([3]; first compound 0.006325 µM) of 0.981. For the same molecule, the relative viability ([3]; first compound 0.02 µM) was 0.966, the relative viability ([3]; first compound 0.06325 µM) was 0.0276 and the relative viability ([3]; first compound 0.2 µM) was 0.0215. It also gave a relative viability ([4]; first compound 0.002 µM) of 1.31, a relative viability ([4]; first compound 0.006325 µM) of 1.11 and a relative viability ([4]; first compound 0.02 µM) of 0.318. For the same molecule, the relative viability ([4]; first compound 0.06325 µM) was 0.159, the relative viability ([4]; first compound 0.2 µM) was 0.144 and the relative viability ([5]; first compound 0.002 µM) was 1.14. It also gave a relative viability ([5]; first compound 0.006325 µM) of 0.885, a relative viability ([5]; first compound 0.02 µM) of 1 and a relative viability ([5]; first compound 0.06325 µM) of 0.0758. The relative viability ([5]; first compound 0.2 µM) was 0.0617, the relative viability ([6]; first compound 0.002 µM) was 0.878 and the relative viability ([6]; first compound 0.006325 µM) was 0.815. For the same molecule, the relative viability ([6]; first compound 0.02 µM) was 0.496, the relative viability ([6]; first compound 0.06325 µM) was 0.253 and the relative viability ([6]; first compound 0.2 µM) was 0.119. The relative viability ([7]; first compound 0.002 µM) was 1.14, the relative viability ([7]; first compound 0.006325 µM) was 1.09 and the relative viability ([7]; first compound 0.02 µM) was 1.02. It also gave a relative viability ([7]; first compound 0.06325 µM) of 1.16, a relative viability ([7]; first compound 0.2 µM) of 1.28 and a relative viability ([8]; first compound 0.002 µM) of 0.874. It also gave a relative viability ([8]; first compound 0.06325 µM) of 1.12, a relative viability ([8]; first compound 0.2 µM) of 0.21 and a relative viability ([9]; first compound 0.002 µM) of 1.21. The relative viability ([9]; first compound 0.006325 µM) was 1.14, the relative viability ([9]; first compound 0.02 µM) was 1.15 and the relative viability ([9]; first compound 0.06325 µM) was 1.08. For the same molecule, the relative viability ([9]; first compound 0.2 µM) was 0.553, the relative viability ([10]; first compound 0.002 µM) was 1.23 and the relative viability ([10]; first compound 0.006325 µM) was 1.01. The relative viability ([10]; first compound 0.02 µM) was 0.0537, the relative viability ([10]; first compound 0.06325 µM) was 0.0176 and the relative viability ([10]; first compound 0.2 µM) was 0.0134. It also gave a relative viability ([11]; first compound 0.002 µM) of 0.517, a relative viability ([11]; first compound 0.006325 µM) of 0.374 and a relative viability ([11]; first compound 0.02 µM) of 0.293. For the same molecule, the relative viability ([11]; first compound 0.06325 µM) was 0.137, the relative viability ([11]; first compound 0.2 µM) was 0.122 and the relative viability ([12]; first compound 0.002 µM) was 1.03. It also gave a relative viability ([12]; first compound 0.006325 µM) of 0.871, a relative viability ([12]; first compound 0.02 µM) of 0.911 and a relative viability ([12]; first compound 0.06325 µM) of 0.202. For the same molecule, the relative viability ([12]; first compound 0.2 µM) was 0.202, the relative viability ([13]; first compound 0.002 µM) was 1.17 and the relative viability ([13]; first compound 0.006325 µM) was 1.18. The relative viability ([13]; first compound 0.02 µM) was 1.13, the relative viability ([13]; first compound 0.06325 µM) was 1.15 and the relative viability ([13]; first compound 0.2 µM) was 1.18. For the same molecule, the relative viability ([14]; first compound 0.002 µM) was 0.981, the relative viability ([14]; first compound 0.006325 µM) was 0.959 and the relative viability ([14]; first compound 0.02 µM) was 0.973. It also gave a relative viability ([14]; first compound 0.06325 µM) of 0.971, a relative viability ([14]; first compound 0.2 µM) of 0.933 and a relative viability ([15]; first compound 0.002 µM) of 1.03. For the same molecule, the relative viability ([15]; first compound 0.006325 µM) was 0.956, the relative viability ([15]; first compound 0.02 µM) was 1.05 and the relative viability ([15]; first compound 0.06325 µM) was 0.919. It also gave a relative viability ([15]; first compound 0.2 µM) of 0.196, a relative viability ([16]; first compound 0.002 µM) of 0.887 and a relative viability ([16]; first compound 0.006325 µM) of 0.478. For the same molecule, the relative viability ([16]; first compound 0.02 µM) was 0.505, the relative viability ([16]; first compound 0.06325 µM) was 0.117 and the relative viability ([16]; first compound 0.2 µM) was 0.0911. For the same molecule, the relative viability ([17]; first compound 0.002 µM) was 1.08, the relative viability ([17]; first compound 0.006325 µM) was 0.793 and the relative viability ([17]; first compound 0.02 µM) was 0.625. For the same molecule, the relative viability ([17]; first compound 0.06325 µM) was 0.142, the relative viability ([17]; first compound 0.2 µM) was 0.13 and the relative viability ([18]; first compound 0.002 µM) was 0.517. It also gave a relative viability ([18]; first compound 0.006325 µM) of 0.511, a relative viability ([18]; first compound 0.02 µM) of 0.272 and a relative viability ([18]; first compound 0.06325 µM) of 0.536. For the same molecule, the relative viability ([18]; first compound 0.2 µM) was 0.112, the relative viability ([19]; first compound 0.002 µM) was 0.818 and the relative viability ([19]; first compound 0.006325 µM) was 0.81. It also gave a relative viability ([19]; first compound 0.02 µM) of 0.648, a relative viability ([19]; first compound 0.06325 µM) of 0.847 and a relative viability ([19]; first compound 0.2 µM) of 0.739. For the same molecule, the relative viability ([20]; first compound 0.002 µM) was 0.954, the relative viability ([20]; first compound 0.006325 µM) was 0.886 and the relative viability ([20]; first compound 0.06325 µM) was 0.936. For the same molecule, the relative viability ([20]; first compound 0.2 µM) was 0.996.
